Source: US20090068258A1, “Caveolin-mimetic peptide for prevention and treatment of pulmonary hypertension and right ventricular hypertrophy” (priority 2007, published 2009)
Residues, ends and D or L forms follow the SMILES beside them. *: point of attachment. Biotin = O=C1N[C@H]2[C@H](CS[C@H]2CCCCC(=O)*)N1

What was measured:
rats with MCT-induced PH = assay: Hemodynamic and morphometric variables in rats with MCT-induced PH; format: in vivo, Sprague-Dawley rats; settings: MCT 60 mg/kg ip rats, peptide 2.5 mg/kg/d ip for 2 weeks; for RV/LV+septum weight ratio: Control rats 25.3±0.5, MCT rats 31.1±0.6; for RV systolic pressures: Control rats 26.0±0.9, MCT rats 40.2±1.5; for BW (body weight) / CVP (central venous pressure) / Dry lung weight/BW / Dry/wet lung weight / HR (heart rate) / LV(+)dP/dt / LV(−)dP/dt / LV/BW / LVEDP (LV-end diastolic pressure) / MAP (mean arterial pressure) / RV(+)dP/dt / RV(−)dP/dt / RV/BW / RVEDP (RV-end diastolic pressure) / Wet lung weight/BW: mean±S.E.M.
Protocol: (§1) Male Sprague-Dawley rats (Charles River, Wilmington, Mass.) weighing between 250-300 g received a single intraperitoneal (ip) injection of either 0.5 ml 0.9% NaCl or 0.5 ml 60 mg/kg MCT. Thirty minutes later, rats were randomly assigned to receive a daily ip injection of either 0.5 ml 0.9% NaCl, 0.5 ml AP (2.5 mg/kg/d) or 0.5 ml AP-Cav (2.5 mg/kg/d) for 2 weeks.
(§2) At two weeks, rats were anesthetized with xylazine (10 mg/kg)-ketamine (50 mg/kg) followed by 2000 U heparin (Sigma-Aldrich). The right jugular vein and carotid artery were then isolated and incised, and millar catheters (SPR-249, Millar Instruments, Houston, Tex.) were advanced into the right and left ventricles (RV and LV) for hemodynamic measurements. The RV and LV pressures were recorded with the Ponemah P3-Data acquisition system (LDS Test and Measurement, Middleton, Wis.).
(§3) Afterwards, the lower lobe of the right lung and the heart were dissected and weighed to respectively determine pulmonary edema and RV hypertrophy, as previously described^11. The remaining lobes of the right lung were submerged in liquid nitrogen and frozen at −80° C. The left pulmonary artery was then cannulated and perfused with 4% paraformaldehyde (PFA) for 2 min. This was followed by perfusion of the airways with 4% PFA for 2 min. The left lung was then immersed in 4% PFA for 24 hours.
(§4) Statistical Analysis. Hemodynamic and morphometric variables as well as the mean gray value of each western blot are expressed as mean±S.E.M. Differences between the 5 groups were evaluated by ANOVA, followed by Tukey's multiple-group comparisons test. Statistical significance was assumed at p<0.05.

Control rats = assay: Hemodynamic and morphometric variables in Control rats (0.9% NaCl instead of MCT); format: in vivo, Sprague-Dawley rats
Protocol: as §1, §2, §3, §4

Cav-1 [1] = assay: Immunoblot analysis of lung Cav-1 protein levels in MCT rats; format: in vivo, Sprague-Dawley rats
Protocol: as §1
(§5) Immunoblot Analysis. Lung samples from Control (n=17), Control+AP-Cav (n=10), MCT (n=25), MCT+AP (n=19), and MCT+AP-Cav (n=24) groups were homogenized in a RIPA lysis buffer containing protease and phosphatase inhibitors. Proteins were then separated by SDS-PAGE (12% acrylamide) and transferred to nitrocellulose membranes. The membranes were placed in blocking solution for 30 min. Afterwards, the membranes were washed and incubated with a given primary antibody for 1 hour (Cav-1, -2 and β-actin) or 3 hours (eNOS, STAT3, PY-STAT3, cyclin D1, and cyclin D3). […] Western blots for Cav-1, Cav-2, eNOS, PY-STAT3, cyclin D1 and cyclin D3 were subsequently quantitated using the NIH Image J software (using the mean gray value for each band).
(§6) Statistical Analysis. Hemodynamic and morphometric variables as well as the mean gray value of each western blot are expressed as mean±S.E.M. Differences between the 5 groups were evaluated by ANOVA, followed by Tukey's multiple-group comparisons test. […]

Cav-2 [2] = assay: Immunoblot analysis of lung Cav-2 protein levels in MCT rats; format: in vivo, Sprague-Dawley rats
Protocol: as §1, §5, §6

PY-STAT3 = assay: Immunoblot analysis of lung PY-STAT3 in MCT rats; format: in vivo, Sprague-Dawley rats
Protocol: as §1, §5, §6

cyclin D1 = assay: Immunoblot analysis of lung cyclin D1 in MCT rats; format: in vivo, Sprague-Dawley rats
Protocol: as §1, §5, §6

cyclin D3 = assay: Immunoblot analysis of lung cyclin D3 in MCT rats; format: in vivo, Sprague-Dawley rats
Protocol: as §1, §5, §6

Cav-1 [3] = assay: Dual-label immunofluorescence analysis of Cav-1 in pulmonary arteries of MCT rats; format: in vivo, Sprague-Dawley rats
Protocol: as §1
(§7) Immunofluorescence Analysis. As mentioned above, the left lung of Control (n=17), Control+AP-Cav (n=10), MCT (n=25), MCT+AP (n=19), and MCT+AP-Cav (n=24) rats was dissected and perfused-fixed. Transverse sections were obtained and embedded with paraffin. Sections of 10 μm were cut and stained with hematoxylin and eosin (H&E).
(§8) Paraffin from 10 μm-thick sections was removed by immersion in xylene. These sections were then rehydrated with graded alcohol to water and blocked overnight. The sections were subsequently incubated with a given primary antibody for three hours. FITC- and TRITC-conjugated secondary antibodies were then added to the sections after a 15 min wash in PBS. After 1 hr of incubation with the secondary antibodies, the sections were washed in PBS and mounted using Prolong Gold antifade reagent (Molecular Probes, Carlsbad, Calif.).

Cav-2 [4] = assay: Dual-label immunofluorescence analysis of Cav-2 in pulmonary arteries of MCT rats; format: in vivo, Sprague-Dawley rats
Protocol: as §1, §7, §8

[5] = test system: pulmonary arteries of MCT rats; assay: Lung vascular morphometry (percent medial wall thickness) in MCT rats; format: in vivo, Sprague-Dawley rats
Protocol: as §1
(§9) Lung Vascular Morphometry. H&E sections of the left lung (n=10 for each groups) were microscopically assessed for the medial wall thickness of pulmonary arteries. Measurements of the luminal diameter and the medial thickness on either side were obtained using the Image J software. Measurements were made on 30 muscular arteries (<50 μm, 51-100 μm, and 100-150 μm of external diameter) per lung section. The medial wall thickness was then related to the external diameter and expressed as percent wall thickness, as previously described^20.
as §4

[6] = test system: pulmonary arteries of Control rats; assay: Lung vascular morphometry (percent medial wall thickness) in Control rats; format: in vivo, Sprague-Dawley rats; settings: data not shown
Protocol: as §1, §9, §4

mice = settings: in vivo delivery, previous reports (refs 17;18); cited from earlier work
[7] = Control rats (no MCT), peptide 2.5 mg/kg/d ip for 2 weeks, mean±S.E.M.

(biotin)-RQPKTWFPNRRKPWKK-DGIWKASFTTFTVTKYWFYR (SEQ ID NO:10)—(OH) [AP-Cav]
RV/LV+septum weight ratio (rats with MCT-induced PH): 24.6±0.5%
RV systolic pressures (rats with MCT-induced PH): 30.1±1.3 mmHg
BW (body weight) (rats with MCT-induced PH): 371 ± 9 g
CVP (central venous pressure) (rats with MCT-induced PH): 3.2 ± 0.2 mmHg
Dry lung weight/BW (rats with MCT-induced PH): 0.028 ± 0.001 %
Dry/wet lung weight (rats with MCT-induced PH): 20.7 ± 0.3%
HR (heart rate) (rats with MCT-induced PH): 261 ± 12 beats/min
LV(+)dP/dt (rats with MCT-induced PH): 5766 ± 335 mmHg/s
LV(−)dP/dt (rats with MCT-induced PH): 3891 ± 309 mmHg/s
LV/BW (rats with MCT-induced PH): 0.200 ± 0.003%
LVEDP (LV-end diastolic pressure) (rats with MCT-induced PH): 2.7 ± 0.3 mmHg
MAP (mean arterial pressure) (rats with MCT-induced PH): 82.6 ± 2.9 mmHg
RV(+)dP/dt (rats with MCT-induced PH): 1489 ± 18 mmHg/s
RV(−)dP/dt (rats with MCT-induced PH): 1107 ± 61 mmHg/s
RV/BW (rats with MCT-induced PH): 0.049 ± 0.001 %
RVEDP (RV-end diastolic pressure) (rats with MCT-induced PH): 3.0 ± 0.2 mmHg
Wet lung weight/BW (rats with MCT-induced PH): 0.132 ± 0.004 %
BW (body weight) (Control rats; [7]): 407 ± 12 g
CVP (central venous pressure) (Control rats; [7]): 3.1 ± 0.1 mmHg
Dry lung weight/BW (Control rats; [7]): 0.019 ± 0.000%
Dry/wet lung weight (Control rats; [7]): 20.8 ± 0.1%
HR (heart rate) (Control rats; [7]): 270 ± 6 beats/min
LV(+)dP/dt (Control rats; [7]): 6216 ± 446 mmHg/s
LV(−)dP/dt (Control rats; [7]): 4614 ± 320 mmHg/s
LV/BW (Control rats; [7]): 0.194 ± 0.005%
LVEDP (LV-end diastolic pressure) (Control rats; [7]): 3.0 ± 0.3 mmHg
MAP (mean arterial pressure) (Control rats; [7]): 79.4 ± 3.4 mmHg
RV(+)dP/dt (Control rats; [7]): 1435 ± 60 mmHg/s
RV(−)dP/dt (Control rats; [7]): 988 ± 46 mmHg/s
RV/BW (Control rats; [7]): 0.050 ± 0.001%
RVEDP (RV-end diastolic pressure) (Control rats; [7]): 2.8 ± 0.2 mmHg
Wet lung weight/BW (Control rats; [7]): 0.091 ± 0.001%
effect on hemodynamic and morphometric variables (Control rats; Control rats, compared to Control group receiving 0.9% NaCl alone): did not affect
pulmonary Cav-1 protein levels (effect in words) (Cav-1 [1]; 2.5 mg/kg/d ip for 2 weeks): significantly prevented the reduction
pulmonary Cav-2 protein levels (effect in words) (Cav-2 [2]; 2.5 mg/kg/d ip for 2 weeks): significantly prevented the reduction
STAT3 signaling cascade (PY-STAT3) in the lungs (effect in words) (PY-STAT3; 2.5 mg/kg/d ip for 2 weeks): prevented the hyper-activation
pulmonary cyclin D1 expression (effect in words) (cyclin D1; 2.5 mg/kg/d ip for 2 weeks): prevented the upregulation
pulmonary cyclin D3 expression (effect in words) (cyclin D3; 2.5 mg/kg/d ip for 2 weeks): prevented the upregulation
Cav-1 expression in pulmonary arteries (Cav-1 [3]): prevented
Cav-2 expression in pulmonary arteries (Cav-2 [4]): prevented
percent medial wall thickness of pulmonary arteries (effect in words) ([5]; 2.5 mg/kg/d ip for 2 weeks): significantly reduced
percent medial wall thickness of pulmonary arteries (effect in words) [6]: had no effect
systemic blood pressure, blood flow, and heart rate (mice): had no effect

CC[C@H](C)[C@H](NC(=O)[C@H](CCCCN)NC(=O)[C@@H]1CCCN1C(=O)[C@H](CCC(N)=O)NC(=O)[C@H](CCCNC(=N)N)NC(=O)CCCC[C@@H]1SC[C@@H]2NC(=O)N[C@@H]21)C(=O)N[C@@H](Cc1c[nH]c2ccccc12)C(=O)N[C@@H](Cc1ccccc1)C(=O)N1CCC[C@H]1C(=O)N[C@@H](CC(N)=O)C(=O)N[C@@H](CCCNC(=N)N)C(=O)N[C@@H](CCCNC(=N)N)C(=O)N[C@@H](CCCCN)C(=O)N1CCC[C@H]1C(=O)N[C@@H](Cc1c[nH]c2ccccc12)C(=O)N[C@@H](CCCCN)C(=O)N[C@@H](CCCCN)C(=O)O [AP, (biotin)-RQPKIWFPNRRKPWKK (SEQ ID NO:1)—(OH)] (Biotin-RQPKIWFPNRRKPWKK-OH)
RV/LV+septum weight ratio (rats with MCT-induced PH): 30.6±0.6%
RV systolic pressures (rats with MCT-induced PH): 39.6±1.5 mmHg
BW (body weight) (rats with MCT-induced PH): 335 ± 7 g
CVP (central venous pressure) (rats with MCT-induced PH): 5.1 ± 0.3 mmHg
Dry lung weight/BW (rats with MCT-induced PH): 0.033 ± 0.001 %
Dry/wet lung weight (rats with MCT-induced PH): 19.7 ± 0.4%
HR (heart rate) (rats with MCT-induced PH): 274 ± 12 beats/min
LV(+)dP/dt (rats with MCT-induced PH): 6268 ± 339 mmHg/s
LV(−)dP/dt (rats with MCT-induced PH): 4319 ± 286 mmHg/s
LV/BW (rats with MCT-induced PH): 0.200 ± 0.004%
LVEDP (LV-end diastolic pressure) (rats with MCT-induced PH): 2.7 ± 0.3 mmHg
MAP (mean arterial pressure) (rats with MCT-induced PH): 85.3 ± 4.4 mmHg
RV(+)dP/dt (rats with MCT-induced PH): 1931 ± 78 mmHg/s
RV(−)dP/dt (rats with MCT-induced PH): 1395 ± 72 mmHg/s
RV/BW (rats with MCT-induced PH): 0.061 ± 0.002 %
RVEDP (RV-end diastolic pressure) (rats with MCT-induced PH): 5.1 ± 0.3 mmHg
Wet lung weight/BW (rats with MCT-induced PH): 0.170 ± 0.007 %
decrease of Cav-1 protein levels in the lungs (Cav-1 [1]; vs Control rats): ~3 fold
decrease of Cav-2 protein levels in the lungs (Cav-2 [2]; vs Control rats): ~2 fold
increased levels of PY-STAT3 in the lungs (PY-STAT3; vs Control rats): ~5 fold
increase in cyclin D1 protein levels in the lungs (cyclin D1; vs Control rats): ~4 fold
increase in cyclin D3 protein levels in the lungs (cyclin D3; vs Control rats): ~4 fold
Cav-1 expression in pulmonary arteries (Cav-1 [3]): marked reductions
Cav-2 expression in pulmonary arteries (Cav-2 [4]): marked reductions
increased percent medial wall thickness of pulmonary arteries ([5]; arteries <50 μm, 51-100 μm, 100-150 μm, vs Control rats): 2-3 fold
